From publication PMC4704150 (Antimicrobial Agents and Chemotherapy, 2015)
Like-named read-outs stand apart in the source and are kept apart here. Marks after values point to notes of the source that are not given here.

Tests used:
[1] = test system: genotypes other than genotype 1; conditions: cited from earlier work
[2] = Drug-drug interaction study, 2D regimen with digoxin; format: in vivo, human healthy volunteers; conditions: for change in the Cmax and AUC values upon coadministration: 2D regimen + digoxin vs 2D regimen alone
[3] = Drug-drug interaction study, 2D regimen with duloxetine, plasma pharmacokinetics; format: in vivo, human healthy volunteers; conditions: for change in the Cmax and AUC values upon coadministration: duloxetine + 2D regimen vs alone
[4] = format: in vivo, human healthy volunteers; conditions: for change in the Cmax and AUC values in the presence of the 2D regimen: except escitalopram AUC
[5] = human, in vivo
[6] = test system: HCV subtypes 1a, 1b, 2a, 3a, 4a, and 6a; conditions: cited from earlier work
[7] = Drug-drug interaction study, 2D regimen with pravastatin; format: in vivo, human healthy volunteers; conditions: for increase in AUC upon coadministration / increase in Cmax upon coadministration: pravastatin + 2D regimen vs alone
[8] = Drug-drug interaction study, 2D regimen with omeprazole; format: in vivo, human healthy volunteers; conditions: for change in the Cmax and AUC values upon coadministration: 2D regimen + omeprazole vs 2D regimen alone
[9] = Drug-drug interaction study, 2D regimen with rosuvastatin; format: in vivo, human healthy volunteers; conditions: for increase in AUC upon coadministration / increase in Cmax upon coadministration: rosuvastatin + 2D regimen vs alone
[10] = format: in vivo, human healthy volunteers; conditions: coadministration vs alone; except in the ketoconazole study
[11] = Drug-drug interaction study, 2D regimen with ketoconazole; format: in vivo, human healthy volunteers; conditions: ketoconazole + 2D regimen vs alone
[12] = in vitro; cited from earlier work
[13] = Drug-drug interaction study, 2D regimen with warfarin; format: in vivo, human healthy volunteers; conditions: for change in the Cmax and AUC values upon coadministration: warfarin + 2D regimen vs alone; for Cmax, Coadministration / AUC (AUC∞), Alone: warfarin study, geometric mean (%CV); for Cmax, Coadministration: warfarin + 2D regimen; for AUC (AUC∞), Alone: warfarin without 2D regimen
[14] = test system: organic anion-transporting polypeptide 1B1/B3 (OATP1B1/B3); conditions: in vitro, at clinically relevant concentrations; cited from earlier work
[15] = test system: breast cancer resistance protein (BCRP); conditions: in vitro, at clinically relevant concentrations; cited from earlier work
P-glycoprotein (P-gp) = conditions: in vitro, at clinically relevant concentrations; cited from earlier work
[16] = cited from earlier work
[17] = digoxin + 2D regimen vs digoxin alone
[18] = escitalopram + 2D regimen vs escitalopram alone
[19] = 2D regimen + rosuvastatin vs 2D regimen alone
[20] = omeprazole + 2D regimen vs omeprazole alone
[21] = escitalopram study, escitalopram + 2D regimen, geometric mean (%CV)

Q: For `COc1c(-c2ccc3cc(NS(C)(=O)=O)ccc3c2)cc(-n2ccc(=O)[nH]c2=O)cc1C(C)(C)C` [Dasabuvir, dasabuvir], which “activity against HCV genotypes other than genotype 1” value [1] is on record?
A: not active

Q: With `C[C@H]1O[C@@H](O[C@H]2[C@@H](O)C[C@H](O[C@H]3[C@@H](O)C[C@H](O[C@H]4CC[C@@]5(C)[C@H](CC[C@@H]6[C@@H]5C[C@@H](O)[C@]5(C)[C@@H](C7=CC(=O)OC7)CC[C@]65O)C4)O[C@@H]3C)O[C@@H]2C)C[C@H](O)[C@@H]1O` [Digoxin, digoxin] as the compound, how does the “increase in AUC upon coadministration” value [2, 17] read?
A: 36%

Q: And the “increase in C24 upon coadministration” value [2, 17]?
A: 24%

Q: And the “increase in Cmax upon coadministration” value [2, 17]?
A: 58%

Q: What about the “ratio of fraction excreted (fraction of unchanged drug eliminated in the urine)” value ([2]; digoxin + 2D regimen vs digoxin alone, urine) of the same compound?
A: 1.01

Q: And the AUC(0-inf) ([2]; human, plasma, 0.5 mg)?
A: 27.8 ng·h/mL

Q: What does the source list for `CNCC[C@H](Oc1cccc2ccccc12)c1cccs1` [Duloxetine, duloxetine]?
A: change in the Cmax and AUC values upon coadministration [3]: ≤ 20%; AUC(0-inf) ([3]; human, plasma, oral, 60 mg): 648 ng·h/mL

Q: Which results are given for `CN(C)CCC[C@@]1(c2ccc(F)cc2)OCc2cc(C#N)ccc21` [Escitalopram, escitalopram]?
A: decrease in AUC in the presence of the 2D regimen [4, 18]: 25%; change in the Cmax and AUC values in the presence of the 2D regimen [4, 18]: ≤ 20%; AUC(0-inf) ([4]; human, plasma, 10 mg): 262 ng·h/mL

Q: What does the source list for `C=CCN1CC[C@]23c4c5ccc(O)c4O[C@H]2C(=O)CC[C@@]3(O)[C@H]1C5` [Naloxone, naloxone]?
A: AUC (AUCtau, AUC24), dose normalized, Alone [5]: 139 (53)^d^,^j pg · h/ml/mg; AUC (AUCtau, AUC24), dose normalized, Coadministration [5]: 154 (76)^d^,^j pg · h/ml/mg; Cmax, dose normalized, Alone [5]: 59.0 (44)^i pg/ml/mg; Cmax, dose normalized, Coadministration [5]: 58.1 (61)^i pg/ml/mg; change in the Cmax and AUC values upon coadministration [5]: ≤ 11%

Q: With `COC(=O)N[C@H](C(=O)N1CCC[C@H]1C(=O)Nc1ccc([C@@H]2CC[C@@H](c3ccc(NC(=O)[C@@H]4CCCN4C(=O)[C@@H](NC(=O)OC)C(C)C)cc3)N2c2ccc(C(C)(C)C)cc2)cc1)C(C)C` [Ombitasvir, ombitasvir] as the compound, how does the “in vitro antiviral activity” value [6] read?
A: show in vitro antiviral activity

Q: What about the “decrease in Cmax or AUC value upon coadministration” value ([7]; 2D regimen + pravastatin vs 2D regimen alone) of the same compound?
A: ≤ 6%

Q: What about the “change in the Cmax and AUC values upon coadministration” value [8] of the same compound?
A: ≤ 7%

Q: And the “change in Cmax and AUC values upon coadministration” value [9, 19]?
A: ≤ 12%

Q: What about the “lower Cmax upon coadministration” value [9, 19] of the same compound?
A: 12%

Q: What about the “Tmax and t1/2 (where calculated)” value [10] of the same compound?
A: not affected in a meaningful way

Q: And the “decrease in Cmax upon coadministration” value [11]?
A: 2%

Q: What about the “increase in AUC upon coadministration” value [11] of the same compound?
A: 26%

Q: And the metabolic pathway [12]?
A: predominantly metabolized by amide hydrolysis followed by oxidative metabolism

Q: And the “change in the Cmax and AUC values upon coadministration” value [3]?
A: ≤ 10%

Q: And the “change in the Cmax and AUC values upon coadministration” value [13]?
A: ≤ 15%

Q: And the “change in the Cmax and AUC values upon coadministration” value [2]?
A: ≤ 15%

Q: For `COc1ccc2[nH]c([S+]([O-])Cc3ncc(C)c(OC)c3C)nc2c1` (stereo not drawn) [Omeprazole, omeprazole], which AUC(0-t) ([8]; human, plasma, 40 mg) is on record?
A: 1170 ng·h/mL

Q: What about the “decrease in exposures upon coadministration” value [8, 20] of the same compound?
A: approximately 50%

Q: What about the “reduction in AUC in the presence of the 2D regimen” value [8, 20] of the same compound?
A: 54%

Q: What about the “reduction in Cmax in the presence of the 2D regimen” value [8, 20] of the same compound?
A: 52%

Q: With `Cc1cnc(C(=O)N[C@H]2CCCCC/C=C\[C@@H]3C[C@@]3(C(=O)NS(=O)(=O)C3CC3)NC(=O)[C@@H]3C[C@@H](Oc4nc5ccccc5c5ccccc45)CN3C2=O)cn1` [Paritaprevir, paritaprevir] as the compound, how does the “in vitro antiviral activity” value [6] read?
A: show in vitro antiviral activity

Q: And the “increase in AUC upon coadministration” value [7]?
A: 33%

Q: What about the “increase in Cmax upon coadministration” value [7] of the same compound?
A: 44%

Q: And the OATP1B1/B3 inhibition [14]?
A: inhibitor

Q: What about the “change in the Cmax and AUC values upon coadministration” value [8] of the same compound?
A: ≤ 7%

Q: What about the “increase in AUC upon coadministration” value [9] of the same compound?
A: 22%

Q: What about the “increase in Cmax upon coadministration” value [9] of the same compound?
A: 40%

Q: What about the “Tmax and t1/2 (where calculated)” value [10] of the same compound?
A: not affected in a meaningful way

Q: And the BCRP inhibition [15]?
A: potential inhibitors

Q: What about the “increase in AUC upon coadministration” value [11] of the same compound?
A: 116%

Q: What about the “increase in Cmax upon coadministration” value [11] of the same compound?
A: 72%

Q: And the “mean t1/2, fold longer upon coadministration” value [11]?
A: more than 2 fold

Q: And the “increase in exposures upon coadministration” value ([11]; Cmax and AUC)?
A: up to 116%

Q: And the P-gp inhibition (P-glycoprotein (P-gp))?
A: potential inhibitors

Q: What about the metabolic pathway [12] of the same compound?
A: primarily metabolized by cytochrome P450 3A (CYP3A)

Q: And the “change in the Cmax and AUC values upon coadministration” value [3]?
A: ≤ 10%

Q: And the “change in the Cmax and AUC values upon coadministration” value [13]?
A: ≤ 15%

Q: And the “exposures higher than those observed with the 150-mg paritaprevir dose” value ([16]; paritaprevir 200 mg)?
A: approximately 93%

Q: What about the “exposures higher than those observed with the 150-mg paritaprevir dose” value ([16]; paritaprevir 250 mg) of the same compound?
A: ~250%

Q: And the “change in the Cmax and AUC values upon coadministration” value [2]?
A: ≤ 15%

Q: For `CC[C@H](C)C(=O)O[C@H]1C[C@H](O)C=C2C=C[C@H](C)[C@H](CC[C@@H](O)C[C@@H](O)CC(=O)O)[C@H]21` [Pravastatin, pravastatin], which “increase in AUC upon coadministration” value [7] is on record?
A: 76%

Q: And the “increase in Cmax upon coadministration” value [7]?
A: 43%

Q: For `CC(=O)C[C@H](c1ccccc1)c1c(O)c2ccccc2oc1=O` [R-Warfarin, R-warfarin], which “Cmax, Coadministration” value [13] is on record?
A: 255 (16) ng/ml

Q: And the “AUC (AUC∞), Alone” value [13]?
A: 19,900 (21)^b ng · h/ml

Q: For `CC(C)c1nc(CN(C)C(=O)N[C@H](C(=O)N[C@@H](Cc2ccccc2)C[C@H](O)[C@H](Cc2ccccc2)NC(=O)OCc2cncs2)C(C)C)cs1` [Ritonavir, ritonavir], which “increase in AUC upon coadministration” value [7] is on record?
A: 37%

Q: What about the “increase in Cmax upon coadministration” value [7] of the same compound?
A: 37%

Q: What about the “change in the Cmax and AUC values upon coadministration” value [8] of the same compound?
A: ≤ 7%

Q: What about the “change in Cmax and AUC values upon coadministration” value [9, 19] of the same compound?
A: ≤ 12%

Q: And the “Tmax and t1/2 (where calculated)” value [10]?
A: not affected in a meaningful way

Q: What about the metabolic pathway [12] of the same compound?
A: primarily metabolized by cytochrome P450 3A (CYP3A)

Q: What about the “change in the Cmax and AUC values upon coadministration” value [3] of the same compound?
A: ≤ 10%

Q: What about the “change in the Cmax and AUC values upon coadministration” value [13] of the same compound?
A: ≤ 15%

Q: And the “change in the Cmax and AUC values upon coadministration” value [2]?
A: ≤ 15%

Q: What does the source list for `CC(C)c1nc(N(C)S(C)(=O)=O)nc(-c2ccc(F)cc2)c1/C=C/[C@@H](O)C[C@@H](O)CC(=O)O` [Rosuvastatin, rosuvastatin]?
A: increase in AUC upon coadministration [9]: 33%; increase in Cmax upon coadministration [9]: 161%; increase in exposures upon coadministration ([9]; rosuvastatin + 2D regimen vs rosuvastatin alone): ≤ 161%

Q: With `CNCCC[C@@]1(c2ccc(F)cc2)OCc2cc(C#N)ccc21` [S-Desmethylcitalopram, S-desmethylcitalopram] as the compound, how does the “change in the Cmax and AUC values in the presence of the 2D regimen” value [4, 18] read?
A: ≤ 20%

Q: And the “AUC (AUC∞), Coadministration” value [4, 21]?
A: 167 (11)^b ng · h/ml

Q: What about the “Cmax, Coadministration” value [4, 21] of the same compound?
A: 1.77 (26) ng/ml

Q: And the “AUC (AUC∞), Alone” value ([4]; escitalopram study, escitalopram without 2D regimen, geometric mean (%CV))?
A: 153 (16)^b ng · h/ml

Q: Which results are given for `CC(=O)C[C@@H](c1ccccc1)c1c(O)c2ccccc2oc1=O` [S-Warfarin, S-warfarin]?
A: change in the Cmax and AUC values upon coadministration [13]: ≤ 15%; Cmax, Coadministration [13]: 240 (14) ng/ml; AUC (AUC∞), Alone [13]: 13,000 (25)^b ng · h/ml
